According to publication PMC11322497 (Frontiers in Pharmacology, 2024):

Legend:
[1] = tested on: high fat diet (HFD) rabbit model of metabolic-associated steatohepatitis (MASH); assay: HFD rabbit study, prolonged 4-week treatment: fibrosis and inflammation markers mRNA expression; type: in vivo, New Zealand White rabbits; details: HFD rabbits, weeks 9–12, mean±SD, n=7
Method: After 1 week (W) of RD, the animals (n = 44) were randomly assigned to the following groups (Table 1B): • Control rabbits continued to receive a RD for 12 weeks and were treated with vehicle for 5 days a week (days 1–5, p.o.) during the last 4 weeks before culling (RD + 4W Veh group); • Rabbits received a HFD for 8 weeks and were culled (HFD 8W group); • Rabbits received a HFD for 12 weeks and were treated with vehicle for 5 days a week (days 1–5, p.o.) during the last 4 weeks before culling (HFD+4W Veh group); • Rabbits received a HFD for 12 weeks and were treated with GB1211 (0.3 mg/kg) for 5 days a week (days 1–5, p.o.) during the last 4 weeks before culling (HFD + 4W 0.3 mg group); • Rabbits received a HFD for 12 weeks and were treated with GB1211 (1.0 mg/kg) for 5 days a week (days 1–5, p.o.) during the last 4 weeks before culling (HFD + 4W 1.0 mg group); • Rabbits received a HFD for 12 weeks and were treated with GB1211 (5.0 mg/kg) for 5 days a week (days 1–5, p.o.) during the last 4 weeks before culling (HFD + 4W 5.0 mg group).
TRIzol reagent (Life Technologies, Paisley, United Kingdom) and/or RNeasy Mini Kit (Qiagen, Hilden, Germany) were used to isolate total RNA from rabbit liver specimens. RNA concentration and quality were measured using a Nanodrop ND-1000 (Thermo Fisher Scientific) at 260 nm and 280 nm. The OD 260/280 absorbance ratios were between 2.0 and 2.1 for all samples, to confirm RNA integrity and purification. cDNA synthesis was carried out using the iScript™ cDNA Synthesis Kit (Bio-Rad Laboratories, Hercules, CA), with 100 ng of mRNA in 20 µL reaction volume in accordance with the following protocol: 5 min at 25°C, 20 min at 46°C and 5 min at 85°C, followed by refrigeration at 4°C.
Semi-quantitative real-time RT-PCR (qRT-PCR) amplification and detection was performed with SsoAdvanced™ universal SYBR® Supermix and a CFX96 Two-Color Real-Time PCR Detection System (both Bio-Rad Laboratories) with the following thermal cycler conditions: 40 cycles at 95°C for 15 s and 60°C for 1 min. Specific PCR primers for rabbit target genes were designed on sequences available at the National Center for Biotechnology Information GenBank (http://www.ncbi.nlm.nih.gov) or Ensemble Genome (http://www.ensembl.org).
The 18S ribosomal RNA subunit was quantified with a predeveloped assay (Hs99999901_s1, Life Technologies) and used as the housekeeping gene for the relative quantitation of the target genes based on the comparative threshold cycle (Ct) 2^−ΔΔCt method ([Livak and Schmittgen, 2001]), with some modifications. In detail, we used the vehicle control groups as the calibrator in each analysis, so that the calculations would provide the fold-change of the other groups relative to controls.

mouse galectin-3 = target: mouse galectin-3; design: method as in Zetterberg et al., 2022; details: ref Zetterberg et al., 2022; read-out: binding affinity for mouse galectin-3; cited from earlier work

## OC[C@H]1O[C@H](Sc2cncc(Br)c2)[C@H](O)[C@@H](n2cc(-c3cc(F)c(F)c(F)c3)nn2)[C@H]1O [selvigaltin]
[1]; 0.3 mg/kg p.o.
  CD4 liver mRNA expression: 1.96 ± 0.51 fold-change vs. RD+Veh
  COL1A1 liver mRNA expression: 45.14 ± 43.26 fold-change vs. RD+Veh
  COL3A1 liver mRNA expression: 12.38 ± 9.89 fold-change vs. RD+Veh
  COX-2 liver mRNA expression: 8.60 ± 4.94 fold-change vs. RD+Veh
  EDN1 liver mRNA expression: 1.08 ± 0.33 fold-change vs. RD+Veh
  EDNRA liver mRNA expression: 3.66 ± 2.05 fold-change vs. RD+Veh
  EDNRB liver mRNA expression: 1.60 ± 0.42 fold-change vs. RD+Veh
  FN1 liver mRNA expression: 1.79 ± 0.76 fold-change vs. RD+Veh
  FOXP3 liver mRNA expression: 2.85 ± 1.40 fold-change vs. RD+Veh
  IL1β liver mRNA expression: 1.33 ± 0.37 fold-change vs. RD+Veh
  IL2 liver mRNA expression: 2.98 ± 1.16 fold-change vs. RD+Veh
  IL6 liver mRNA expression: 2.43 ± 1.89 fold-change vs. RD+Veh
  LGALS3 liver mRNA expression: 63.90 ± 24.46 fold-change vs. RD+Veh
  MCP1 liver mRNA expression: 7.70 ± 6.93 fold-change vs. RD+Veh
  PAI-1 liver mRNA expression: 4.91 ± 1.83 fold-change vs. RD+Veh
  RAGE liver mRNA expression: 1.99 ± 1.10 fold-change vs. RD+Veh
  SNAI1 liver mRNA expression: 2.05 ± 2.05 fold-change vs. RD+Veh
  SNAI2 liver mRNA expression: 2.28 ± 1.03 fold-change vs. RD+Veh
  TGFβ1 liver mRNA expression: 4.06 ± 1.62 fold-change vs. RD+Veh
  TGFβ3 liver mRNA expression: 1.73 ± 0.80 fold-change vs. RD+Veh
  TLR4 liver mRNA expression: 3.89 ± 1.45 fold-change vs. RD+Veh
  TNFα liver mRNA expression: 4.39 ± 0.96 fold-change vs. RD+Veh
  αSMA liver mRNA expression: 4.64 ± 4.05 fold-change vs. RD+Veh
[1]; 1.0 mg/kg p.o.
  CD4 liver mRNA expression: 1.33 ± 0.66 fold-change vs. RD+Veh
  COL1A1 liver mRNA expression: 9.00 ± 6.03 fold-change vs. RD+Veh
  COL3A1 liver mRNA expression: 3.49 ± 2.11 fold-change vs. RD+Veh
  COX-2 liver mRNA expression: 6.14 ± 3.84 fold-change vs. RD+Veh
  EDN1 liver mRNA expression: 0.99 ± 0.28 fold-change vs. RD+Veh
  EDNRA liver mRNA expression: 2.13 ± 1.20 fold-change vs. RD+Veh
  EDNRB liver mRNA expression: 1.58 ± 0.31 fold-change vs. RD+Veh
  FN1 liver mRNA expression: 1.06 ± 0.22 fold-change vs. RD+Veh
  FOXP3 liver mRNA expression: 1.39 ± 0.43 fold-change vs. RD+Veh
  IL1β liver mRNA expression: 1.18 ± 0.45 fold-change vs. RD+Veh
  IL2 liver mRNA expression: 1.85 ± 1.16 fold-change vs. RD+Veh
  IL6 liver mRNA expression: 0.58 ± 0.22 fold-change vs. RD+Veh
  LGALS3 liver mRNA expression: 50.04 ± 15.84 fold-change vs. RD+Veh
  MCP1 liver mRNA expression: 4.23 ± 1.50 fold-change vs. RD+Veh
  PAI-1 liver mRNA expression: 4.93 ± 2.25 fold-change vs. RD+Veh
  RAGE liver mRNA expression: 1.14 ± 0.36 fold-change vs. RD+Veh
  SNAI1 liver mRNA expression: 1.30 ± 1.21 fold-change vs. RD+Veh
  SNAI2 liver mRNA expression: 1.15 ± 0.42 fold-change vs. RD+Veh
  TGFβ1 liver mRNA expression: 2.87 ± 1.14 fold-change vs. RD+Veh
  TGFβ3 liver mRNA expression: 1.20 ± 0.54 fold-change vs. RD+Veh
  TLR4 liver mRNA expression: 3.63 ± 0.90 fold-change vs. RD+Veh
  TNFα liver mRNA expression: 3.67 ± 2.21 fold-change vs. RD+Veh
  αSMA liver mRNA expression: 1.75 ± 1.34 fold-change vs. RD+Veh
[1]; 5.0 mg/kg p.o.
  CD4 liver mRNA expression: 2.60 ± 1.97 fold-change vs. RD+Veh
  COL1A1 liver mRNA expression: 25.20 ± 23.86 fold-change vs. RD+Veh
  COL3A1 liver mRNA expression: 7.26 ± 6.59 fold-change vs. RD+Veh
  COX-2 liver mRNA expression: 13.87 ± 22.12 fold-change vs. RD+Veh
  EDN1 liver mRNA expression: 1.09 ± 0.51 fold-change vs. RD+Veh
  EDNRA liver mRNA expression: 3.04 ± 2.38 fold-change vs. RD+Veh
  EDNRB liver mRNA expression: 2.49 ± 2.19 fold-change vs. RD+Veh
  FN1 liver mRNA expression: 1.51 ± 0.74 fold-change vs. RD+Veh
  FOXP3 liver mRNA expression: 3.57 ± 1.87 fold-change vs. RD+Veh
  IL1β liver mRNA expression: 1.32 ± 0.62 fold-change vs. RD+Veh
  IL2 liver mRNA expression: 3.33 ± 2.66 fold-change vs. RD+Veh
  IL6 liver mRNA expression: 1.59 ± 1.33 fold-change vs. RD+Veh
  LGALS3 liver mRNA expression: 67.63 ± 53.87 fold-change vs. RD+Veh
  MCP1 liver mRNA expression: 5.47 ± 2.52 fold-change vs. RD+Veh
  PAI-1 liver mRNA expression: 5.06 ± 3.07 fold-change vs. RD+Veh
  RAGE liver mRNA expression: 1.73 ± 0.67 fold-change vs. RD+Veh
  SNAI1 liver mRNA expression: 2.32 ± 1.38 fold-change vs. RD+Veh
  SNAI2 liver mRNA expression: 1.68 ± 0.79 fold-change vs. RD+Veh
  TGFβ1 liver mRNA expression: 3.96 ± 2.80 fold-change vs. RD+Veh
  TGFβ3 liver mRNA expression: 1.87 ± 0.71 fold-change vs. RD+Veh
  TLR4 liver mRNA expression: 3.90 ± 1.30 fold-change vs. RD+Veh
  TNFα liver mRNA expression: 3.80 ± 1.84 fold-change vs. RD+Veh
  αSMA liver mRNA expression: 3.17 ± 2.57 fold-change vs. RD+Veh
Mouse galectin-3
  Kd: 770 nM
